Measured values from patent US9315531B2, “Titanocene-gold derivatives comprising thiolato ligands” (Research Foundation of the City University of New York, priority 2014, dated 2016).

How the values were obtained:
[1] = Protocol: The lethal dose (LD) and maximum tolerated doses (MTD) of compound 2 were evaluated in C57/BL6 mice (see experimental for details). […] Twenty-four hours after the last dose all mice used in the MTD study were euthanized and blood plasma, liver, spleen and kidneys were collected and used for histological analysis.
Lethal and maximum tolerated doses (LD and MTD): Determination of lethal and maximum tolerated doses (LD and MTD) in mice: The preliminary toxicity testing of compound 2 was performed in C57BL/6 female mice six to eight weeks of age, maintained in accordance with institutional guidelines at the University of Hawaii Cancer Center (UHCC) governing the care of laboratory animals (IACUC number: A3423-01). To determine the lethal dose, mice were treated for five consecutive days at dosages ranging from 1.5 mg/kg/day to 6 mg/kg/day. One mouse per dose was used. Mice were weighed every forty-eight hours, and sacrificed twenty-four hours after the last dose. […] In order to determine the maximum tolerated dose (MTD) the animals were monitored by trained individuals for pain and distress as appropriate for the animal, under conditions and by procedures established by the UHCC vivarium veterinarian staff and research personnel (BTE). The maximum tolerated dose (MTD) was determined by observing the progression of the mice treated at doses below the lethal dose. Body weights, changes in behavior and signs of distress were recorded. The dose at which neither debilitating effects nor sign of distress were observed was set as the MTD. More specifically the signs for distress monitored were: 1. Decreased food and water consumption; 2. […] Abnormal posture/positioning (e.g., head-pressing, hunched back); 4. Unkempt appearance (erected, matted, or dull haircoat); 5. Self-mutilation, gnawing at limbs; 6. Excessive self-imposed isolation/hiding. […] One group of mice was treated with the solvent (negative control).

[2] = Solubility in DMSO/aqueous mixtures; assay type: physicochemical; settings: at micromolar concentrations
From the text: (§1) Both compound 2 and compound 3 were less acidic than titanocene dichloride and were soluble in DMSO/water, DMSO/PBS and DMSO/media (1:99) mixtures at micromolar concentrations. These compounds were unusually stable methyl-containing titanocene moieties that were stable as solids at room temperature, while exposed to air in CDCl3 solution for at least five days.

[3] = system: p90-RSK; assay: Protein kinase expression in Caki-1 whole cell lysates, p90-RSK; assay type: cell-based, human; settings: Caki-1, 5 μM, by 12 hours post-treatment
Protocol: Whole cell lysates of Caki-1 cells treated with compounds 2 or 6 were also evaluated for their effects on the expression levels of selected protein kinases, namely p90-RSK, AKT and MAPKAPK3. […] Because all three enzymes have been implicated in promoting cell migration and therefore are strong targets for anti-metastasis drugs, these findings predict that compound 2 would be effective in controlling metastatic potential of renal tumors.
Cell lysis and immunoblotting: Caki-1 cells were seeded into 10-cm dishes at a density of 2.2×10^6 and incubated for 24 hours. […]
The protein concentration was determined with BCA protein dye reagent (Pierce, Fisher Scientific Pittsburgh, Pa.). Samples were denatured with 5×SDS sample buffer (0.25% bromophenol blue, 0.5 M dithiothreitol (DTT), 50% glycerol 50% (v/v), 10% sodium dodecyl sulfate (SDS) followed by heating at 95° C. for 5 minutes. Proteins were separated by SDS-PAGE, transferred to a PVDF membrane (Millipore Corp.), and probed with MAPKAPK-3 antibody (Cell Signaling Technology, Danvers, Mass., USA), as well as β-actin antibody (Cell Signaling Technology, Danvers, Mass., USA). Immunoreactive bands of primary antibodies were detected using HRP goat anti-rabbit and secondary antibodies were detected with peroxidase-conjugated secondary antibody and detected by chemiluminescence (Pierce Biotechnology, Rockford, Ill.).

[4] = Stability in solution (DMSO-d6, CDCl3, DMSO/PBS); assay type: physicochemical
From the text: as §1

[5] = system: HEK-293T; assay: Cell viability assay (XTT), HEK-293T; assay type: cell-based; settings: 72 h incubation; non-tumorigenic human embryonic kidney cell line
Protocol: HEK-293T cells were newly purchased from ATCC (Manassas, Va., USA) and maintained in Dulbecco's modified Eagle's medium (DMEM) (Mediatech) supplemented with 10% FBS, 1% NEAA and 1% PenStrep. […] All cells were cultured at 37° C. and 5% CO2 in a humidified incubator.

[6] = system: Caki-1 cells; assay type: cell-based, human; settings: Caki-1, 5 μM
Protocol: Anti-invasive properties were evaluated by using a wound-healing scratch assay.
Cell migration: For wound healing assays, Caki-1 cells were seeded in 6 cm dishes at a density of 0.8×10^6 in complete media, then grown to confluence for twenty-four hours at 37° C. (5% CO2), then cross-shape wounds/scratches were performed in the monolayer using a sterile 10 μl pipette tip. […] To quantify cell migration, the area of the initial wound (T0) is compared with the area of the healing wound at three time points after the scratch is introduced. Percent Migration=[area of original wound−area of wound during healing]/Area of original wound]×100.

[7] = system: RPTC; assay: Cell viability assay (XTT), RPTC; assay type: cell-based; settings: 72 h incubation; human renal proximal tubular cells
From the text: Cell Culture: Human renal cell carcinoma lines A498, Caki-1 and UO31, as well as the human prostate carcinoma cell lines DU145 and PC3 were newly obtained for these studies from the American Type Culture Collection (ATCC) (Manassas, Va., USA) and cultured in Roswell Park Memorial Institute (RPMI-1640) (Mediatech Inc., Manassas, Va.) media containing 10% fetal bovine serum (FBS, Life Technologies, Grand Island, N.Y.), 1% Minimum Essential Media (MEM) nonessential amino acids (NEAA, Mediatech) and 1% penicillin-streptomycin (PenStrep, Mediatech). HEK-293T cells were newly purchased from ATCC (Manassas, Va., USA) and maintained in Dulbecco's modified Eagle's medium (DMEM) (Mediatech) supplemented with 10% FBS, 1% NEAA and 1% PenStrep. Normal human renal epithelial cells (RPTC) were purchased from Lifeline Cell Technology (Lifeline Cell Technology, Frederick, Md., USA) and maintained in Lifeline's Renal Life Medium from Lifeline Cell Technology supplemented with 2.4 mM L-glutamine, 5 μg/mL rh insulin, 1.0 nM epinephrine, 10 nM triiodothyronine, 0.1 μg/mL hydrocortisone hemisuccinate, 10 ng/mL rhEGF, 0.50% FBS, 5 μg/mL transferrin PS. All cells were cultured at 37° C. and 5% CO2 in a humidified incubator.
Cell Viability Assay: Cells were seeded at a concentration of 5000 cells/90 μl per well of either RPMI or DMEM without phenol red and without antibiotics, supplemented with 10% FBS and 2 mM L-glutamine into tissue culture grade 96-well flat bottom microplates (BioLite Microwell Plate, Fisher Scientific, Waltham, Mass., USA) and grown for 24 h at 37° C. in a humidified incubator. Afterwards, the intermediate dilutions of the compounds were added to the wells (10 μL) to obtain a final concentration ranging from 0.1 to 200 μM, and the cells were incubated for 24 h or 72 h. […] The optical absorbance of each well in a 96-well plate was quantified using BioTek ELx808 absorbance microplate reader (BioTek Winooski, Vt.) set at 450 nm wavelength. The percentage of surviving cells was calculated from the ratio of absorbance of treated to untreated cells.

[(η-C5H5)2TiMe(μ-mba)Au(PPh3)] [Compound 2]
necropsy findings at MTD ([1]; 10 mg/kg/day compound 6, 5 mg/kg/day compound 2): normal liver and slightly enlarged spleens
maximum tolerated dose (MTD) ([1]; C57/BL6 mice, no visible signs of distress over seven days): 5 mg/kg/day
lethal dose (LD) ([1]; C57/BL6 mice, once daily subcutaneous injection): 6 mg/kg/day
solubility in DMSO/water, DMSO/PBS and DMSO/media (1:99) mixtures [2]: soluble
expression of p90-RSK [3]: dramatic decreases in expression
half-life in DMSO-d6 ([4]; DMSO-d6): eight
half-life fold larger than corresponding compound 6 / compound 7 ([4]; DMSO-d6, same solvent): sixteen
UV-vis spectra over time ([4]; micromolar concentration in 1:99 DMSO/PBS, 23 h, physiological pH): did not change over time
IC50 [5]: 0.49 ± 0.0008 µM
inhibition of migration [6]: complete inhibition of migration
IC50 [7]: 2.67 ± 0.12 µM
